# Data as given in PMC10882719 (Frontiers in Neuroscience, 2024).
# Read-outs that look alike come from different tables or passages of the source.
# Experiments:
# Format in all cases: cell-based
# 168 GPCRs [1] = biological target: T1, 168 GPCRs (Homo sapiens, UniProt O95136)
# T1 construct: host or cells: PathHunter cell lines
# 168 GPCRs [2] = biological target: T2, 168 GPCRs (Homo sapiens, UniProt P11229)
# T2 construct: host or cells: PathHunter cell lines
# T2 sequence (P11229 1-460): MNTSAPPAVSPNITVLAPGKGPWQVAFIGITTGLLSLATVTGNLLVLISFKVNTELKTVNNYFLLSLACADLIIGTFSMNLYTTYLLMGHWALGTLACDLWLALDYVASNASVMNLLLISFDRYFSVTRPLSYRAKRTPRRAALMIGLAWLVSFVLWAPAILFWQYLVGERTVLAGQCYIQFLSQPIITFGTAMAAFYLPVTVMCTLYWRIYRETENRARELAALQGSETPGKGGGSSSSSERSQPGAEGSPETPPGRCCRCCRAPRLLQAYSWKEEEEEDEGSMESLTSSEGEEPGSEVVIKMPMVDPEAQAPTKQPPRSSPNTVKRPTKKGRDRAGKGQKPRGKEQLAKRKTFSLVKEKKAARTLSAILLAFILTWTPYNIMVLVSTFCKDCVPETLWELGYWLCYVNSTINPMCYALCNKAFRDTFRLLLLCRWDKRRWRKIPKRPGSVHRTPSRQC
# 168 GPCRs [3] = biological target: T3, 168 GPCRs (Homo sapiens, UniProt P30559); settings: OXTR
# T3 construct: host or cells: PathHunter cell lines
# T3 sequence (P30559 1-389): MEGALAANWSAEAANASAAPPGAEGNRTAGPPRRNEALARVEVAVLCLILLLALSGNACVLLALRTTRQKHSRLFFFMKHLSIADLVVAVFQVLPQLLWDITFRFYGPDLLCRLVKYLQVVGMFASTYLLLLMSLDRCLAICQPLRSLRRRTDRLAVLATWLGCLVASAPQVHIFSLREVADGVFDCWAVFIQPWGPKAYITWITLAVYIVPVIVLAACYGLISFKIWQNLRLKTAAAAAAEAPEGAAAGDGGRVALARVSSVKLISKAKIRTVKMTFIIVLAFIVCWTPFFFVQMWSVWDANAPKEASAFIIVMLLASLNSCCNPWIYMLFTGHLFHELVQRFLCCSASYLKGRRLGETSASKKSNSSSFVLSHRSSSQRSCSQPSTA
# 168 GPCRs [4] = biological target: T4, 168 GPCRs (Homo sapiens, UniProt P51677)
# T4 construct: host or cells: PathHunter cell lines
# T4 sequence (P51677 1-355): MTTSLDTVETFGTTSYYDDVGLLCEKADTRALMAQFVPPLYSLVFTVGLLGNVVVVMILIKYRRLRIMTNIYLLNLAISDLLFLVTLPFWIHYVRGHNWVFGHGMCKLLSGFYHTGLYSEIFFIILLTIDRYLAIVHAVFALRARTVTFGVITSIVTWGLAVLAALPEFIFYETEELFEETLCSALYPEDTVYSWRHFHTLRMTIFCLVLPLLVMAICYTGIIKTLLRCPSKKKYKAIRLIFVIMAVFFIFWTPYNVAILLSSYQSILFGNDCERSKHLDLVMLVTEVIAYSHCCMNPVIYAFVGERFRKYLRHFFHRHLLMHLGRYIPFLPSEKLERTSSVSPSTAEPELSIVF
# 168 GPCRs [5] = biological target: T5, 168 GPCRs (Homo sapiens, UniProt Q8TCW9); settings: PROKR1
# T5 construct: host or cells: PathHunter cell lines
# T5 sequence (Q8TCW9 whole entry): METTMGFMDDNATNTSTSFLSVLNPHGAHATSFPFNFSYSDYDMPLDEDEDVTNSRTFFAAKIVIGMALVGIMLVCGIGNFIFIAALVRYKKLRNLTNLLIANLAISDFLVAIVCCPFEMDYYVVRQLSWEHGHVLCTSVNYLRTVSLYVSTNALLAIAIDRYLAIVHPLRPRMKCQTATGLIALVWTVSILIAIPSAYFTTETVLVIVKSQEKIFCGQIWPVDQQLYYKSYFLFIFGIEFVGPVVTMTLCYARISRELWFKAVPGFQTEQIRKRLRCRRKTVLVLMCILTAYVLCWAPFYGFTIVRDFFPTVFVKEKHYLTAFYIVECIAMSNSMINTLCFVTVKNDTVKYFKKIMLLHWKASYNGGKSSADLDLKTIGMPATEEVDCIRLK
# 168 GPCRs [6] = biological target: T6, 168 GPCRs (Homo sapiens, UniProt Q9P296)
# T6 construct: host or cells: PathHunter cell lines
# T6 sequence (Q9P296 whole entry): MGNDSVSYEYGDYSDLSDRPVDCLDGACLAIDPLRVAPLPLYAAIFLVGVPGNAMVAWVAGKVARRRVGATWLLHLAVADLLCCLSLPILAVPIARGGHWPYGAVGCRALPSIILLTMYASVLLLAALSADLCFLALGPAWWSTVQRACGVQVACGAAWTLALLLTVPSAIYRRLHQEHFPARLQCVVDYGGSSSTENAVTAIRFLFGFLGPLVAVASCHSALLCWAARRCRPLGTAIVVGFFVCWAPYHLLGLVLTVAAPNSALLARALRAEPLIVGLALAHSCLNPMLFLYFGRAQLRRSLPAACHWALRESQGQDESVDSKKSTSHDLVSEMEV
# 168 GPCRs [7] = tested on: 168 GPCRs
# T1 sequence (O95136 whole entry): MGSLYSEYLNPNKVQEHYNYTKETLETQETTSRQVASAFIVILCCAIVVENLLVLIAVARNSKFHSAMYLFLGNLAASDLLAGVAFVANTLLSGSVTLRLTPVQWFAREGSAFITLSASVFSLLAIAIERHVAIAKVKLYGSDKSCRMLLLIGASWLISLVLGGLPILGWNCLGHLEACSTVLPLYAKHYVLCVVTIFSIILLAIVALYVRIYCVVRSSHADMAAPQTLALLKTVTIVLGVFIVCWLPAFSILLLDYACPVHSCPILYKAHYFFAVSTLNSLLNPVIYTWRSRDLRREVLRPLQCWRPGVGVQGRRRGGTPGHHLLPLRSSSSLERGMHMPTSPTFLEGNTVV
Structure (SMILES),"% Agonist Activity (168 GPCRs [1]; EDG5, 1 uM) [%]","% Antagonist Activity (168 GPCRs [1]; EDG5, 1 uM) [%]","% Agonist Activity (168 GPCRs [1]; EDG5, 10 uM) [%]","% Antagonist Activity (168 GPCRs [1]; EDG5, 10 uM) [%]","% Agonist Activity (168 GPCRs [2]; CHRM1, 1 uM) [%]","% Antagonist Activity (168 GPCRs [2]; CHRM1, 1 uM) [%]","% Agonist Activity (168 GPCRs [2]; CHRM1, 10 uM) [%]","% Antagonist Activity (168 GPCRs [2]; CHRM1, 10 uM) [%]",% Agonist Activity (168 GPCRs [3]; Conc 1 uM) [%],% Antagonist Activity (168 GPCRs [3]; Conc 1 uM) [%],% Agonist Activity (168 GPCRs [3]; Conc 10 uM) [%],% Antagonist Activity (168 GPCRs [3]; Conc 10 uM) [%],"% Agonist Activity (168 GPCRs [4]; CCR3, 1 uM) [%]","% Antagonist Activity (168 GPCRs [4]; CCR3, 1 uM) [%]","% Agonist Activity (168 GPCRs [4]; CCR3, 10 uM) [%]","% Antagonist Activity (168 GPCRs [4]; CCR3, 10 uM) [%]",% Agonist Activity (168 GPCRs [5]; Conc 1 uM) [%],% Antagonist Activity (168 GPCRs [5]; Conc 1 uM) [%],% Agonist Activity (168 GPCRs [5]; Conc 10 uM) [%],% Antagonist Activity (168 GPCRs [5]; Conc 10 uM) [%],further results
"CNC(C)Cc1ccc2c(c1)OCO2 (stereo not drawn) [MDMA, 3,4-Methylenedioxy methamphetamine, reference compound]",-1.1,-0.5,-1.5,0.6,0.2,12.1,0.7,0.1,-0.2,3.7,0.6,8.2,-1.5,1.5,-1.3,9.6,0.3,-8.7,0.7,8.5,"% Agonist Activity (168 GPCRs [6]; C5L2, 1 uM): 7.7%; % Antagonist Activity (168 GPCRs [6]; C5L2, 1 uM): -5.5%; % Agonist Activity (168 GPCRs [6]; C5L2, 10 uM): 3.3%; % Antagonist Activity (168 GPCRs [6]; C5L2, 10 uM): -4%; % Agonist Activity (168 GPCRs [7]; DRD2S, 1 uM): 1.6%; % Antagonist Activity (168 GPCRs [7]; DRD2S, 1 uM): 5.8%; % Agonist Activity (168 GPCRs [7]; DRD2S, 10 uM): 1.9%; % Antagonist Activity (168 GPCRs [7]; DRD2S, 10 uM): 14.7%; % Agonist Activity (168 GPCRs [7]; NPSR1B, Conc 1 uM): -3.8%; % Antagonist Activity (168 GPCRs [7]; NPSR1B, Conc 1 uM): 4.3%; % Agonist Activity (168 GPCRs [7]; NPSR1B, Conc 10 uM): -5.1%; % Antagonist Activity (168 GPCRs [7]; NPSR1B, Conc 10 uM): 5%"
CNC(C)C(=O)c1ccc2c(c1)OCO2 (stereo not drawn) [methylone],-4.7,-3.4,-3.7,-6.3,-9.1,15.8,-8.5,2,-0.6,12.7,-0.5,6.9,-6.7,-11.8,-7.6,-4,-1.3,8.7,-2.8,3.3,"% Agonist Activity (168 GPCRs [6]; C5L2, 1 uM): 8.4%; % Antagonist Activity (168 GPCRs [6]; C5L2, 1 uM): 10%; % Agonist Activity (168 GPCRs [6]; C5L2, 10 uM): 12.9%; % Antagonist Activity (168 GPCRs [6]; C5L2, 10 uM): 1.4%; Agonist activity at any of 168 GPCRs (168 GPCRs [7]; 1 or 10 μM, threshold 30% activity): no significant agonist activity; Antagonist activity at any GPCR (168 GPCRs [7]; 1 or 10 μM, threshold 50% inhibition): no significant antagonist activity; % Agonist Activity (168 GPCRs [7]; DRD2S, 1 uM): 0%; % Antagonist Activity (168 GPCRs [7]; DRD2S, 1 uM): 3.6%; % Agonist Activity (168 GPCRs [7]; DRD2S, 10 uM): 0.6%; % Antagonist Activity (168 GPCRs [7]; DRD2S, 10 uM): -11.6%; % Agonist Activity (168 GPCRs [7]; NPSR1B, Conc 1 uM): -1.3%; % Antagonist Activity (168 GPCRs [7]; NPSR1B, Conc 1 uM): -10.6%; % Agonist Activity (168 GPCRs [7]; NPSR1B, Conc 10 uM): 4.8%; % Antagonist Activity (168 GPCRs [7]; NPSR1B, Conc 10 uM): -7.6%"
